Assay type in all cases: cell-based, human
In one assay the test system is HEK 293FT cells. Put plainly: Flow enabled tracking of connexosomes in HEK 293FT cells (FETCH). Particulars: for heterotypic FETCH score when paired with Cx43: co-plated with cells expressing Cx43; for homotypic FETCH score (docking): homotypic pairing of fluorescent C-terminal fusion constructs, Q2/(Q1+Q2+Q3). As for the experimental part:
FETCH analysis is fundamentally a two-component system. To complete FETCH analysis, replica multi-well plates were transfected with either of the two components being evaluated. The media of transfected wells was changed 16-18 hrs post-transfection and cells were trypsinized and experimental counterparts were combined at ˜20 hrs post-transfection. The entirety of combined samples were then plated onto new, 10 μg/mL Fibronectin coated wells of the same size, resulting in hyperdensity and over confluency. Following co-plating, samples were incubated for ˜20 hr-24 hrs, at which point samples were trypsinized, resuspended in phosphate buffered saline with 10 U/mL DNAse and fixed with paraformaldehyde (f/c of 1.5%). Co-plated samples in 96 well plates were resuspended to a final volume of ˜150 μL, samples from 24-well plates were resuspended to a final volume of ˜600 μL.
Flow cytometry data was collected on either a BD FACSCanto II (2-color experiments and high-throughput 96-well plates; 488 nm and 633 nm lasers), which utilizes the BD FACSDiVa software. Samples were analyzed in two selection gates prior to their fluorescence evaluation. First, presumable HEK cells were identified by evaluating sample forward vs side scatter area. Next, single cells were selected by evaluating cells that maintained a linear correlation of forward scatter height to forward scatter area. Finally, the fluorescence profiles of each sample were generated.
Each FETCH experiment produces “*.fcs” files that contain all the channel data for fluorescence in the sample. The automated pipeline loads these files, extracts FSC-A, SSC-A, and FSC-H. Depending on the machine used, green channel was loaded as 1-A or as FITC-A. For the red channel, both APC-A (RFP670) with PE-A (mApple) can be used or 5-A(RFP670) can be used. Next, the code produces two matrices containing SSC-A with FSC-A, and FSC-A with FSC-H, respectively.
The first gate is drawn on the FSC-A vs SSC-A axes to exclude cellular debris which clusters in the lower left corner and the cells that are saturating the laser (at the max of both axes). On an FSC-A vs SSC-A plot, the cellular debris usually is smoothly transitioning into the population of intact cells, therefore a Gaussian kernel density estimator with the estimator bandwidth selection defined by the Scott's Rule is used to draw contours around the data in SSC-A vs FSC-A matrix. Next, a set of heuristics was used to determine which of the contour lines should be used to define the first gate. Specifically, cellular debris usually clusters below 25000 on both axes, so any contour that includes values at or below is excluded. Similarly, any contour within a 1000 of the maximum value of each axis is also excluded. Of the remaining contours, the largest one is chosen, and an oval equation is fitted to the points defining that contour to attenuate occasional protrusions of the contour that tap into cellular debris population in rare cases. The fitted oval becomes the first gate.
For all the elements inside of the first gate, a second gate was drawn in the axis of FSC-A and FSC-H to exclude non-single cells. For the second gate, a line was fit to all the points. Next, for each point, a norm to the fit line was found and a standard deviation of all such norms was found. Using this standard deviation, a second gate 4 standard deviations away from the fitted line was defined on both sides and excluded all the points outside of this gate.
Upon applying the first two gates, the data was finally plotted with the red fluorophore on the y axis and the green fluorophore on the x axis. If a sample contained more than two fluorophores, then the last gate was drawn for each possible combination. Since some readings are below zero due to fluorescence compensation, all the data points were shifted by the smallest value along both axes and then a natural log of fluorescence levels was taken. […]

For another assay, the system named is 293 cells. Nature of the assay: FETCH in 293 cell line. The conditions noted are these: compared with HEK 293FT. The text has this:
(§1) For FETCH to be successful, cells must overexpress Cx-FP constructs to a sufficient degree to promote observable fluorescence exchange.

Another assay deals with HeLa cells. Nature of the assay: FETCH in HeLa cell line. The conditions noted are these: compared with HEK 293FT.
Text: as §1

For “Cx43-ELs-Cx26: chimeric construct of the intracellular and transmembrane regions of Cx43 and the ELs of Cx26”, the “FETCH docking when paired with Cx26” value in the assay on HEK 293FT cells (co-plated with cells expressing Cx26) is on record as “preferentially docked”. Besides, the “heterotypic FETCH score when paired with Cx43” value (shortened to “heterotypic FETCH score”) in the assay with HEK 293FT cells is “not Cx43”. Consider “Cx32: human connexin 32 (GJB1), C-terminal fluorescent fusion protein”, for which, in the assay on HEK 293FT cells, the “heterotypic FETCH score” value is “failed to dock” and the “homotypic FETCH score (docking)” value is reported as “significantly positive”. On to “Cx45: human connexin 45 (GJC1), C-terminal fluorescent fusion protein”, for which, in the assay with HEK 293FT cells, the “heterotypic FETCH score” value is on record as “positive” and the “homotypic FETCH score (docking)” value is “significantly positive”. For “Cx31.1: human connexin 31.1 (GJB5), C-terminal fluorescent fusion protein”, in the assay on HEK 293FT cells, the “homotypic FETCH score (docking)” value was “failed to generate a significant homotypic FETCH score”. As to “Cx46: human connexin 46 (GJA3), C-terminal fluorescent fusion protein”, in the assay on HEK 293FT cells, the “homotypic FETCH score (docking)” value is given as “failed to generate a significant homotypic FETCH score”. As for “Cx62: human connexin 62 (GJA10), C-terminal fluorescent fusion protein”, the “homotypic FETCH score (docking)” value in the assay on HEK 293FT cells is “failed to generate a significant homotypic FETCH score”. On the same count and under the same terms, for “Cx31.3: human connexin 31.3, C-terminal fluorescent fusion protein” the value was “failed to generate a significant homotypic FETCH score”; for “D190A: random alanine scanning mutation of the Cx43 extracellular loops”, “retained their ability to homotypically dock”. In the case of “Cx43: human connexin 43 (GJA1), expressed as C-terminal fluorescent fusion protein”, the “homotypic FETCH score (docking)” value in the assay with HEK 293FT cells is “significantly positive”. The FETCH score entry in the assay with 293 cells and in the assay on HeLa cells was “substantially lower” throughout.

Take “Cx31.9: human connexin 31.9 (GJD3), C-terminal fluorescent fusion protein”: the “homotypic FETCH score (docking)” value in the assay on HEK 293FT cells was “failed to generate a significant homotypic FETCH score”. For the substance “S182A: random alanine scanning mutation of the Cx43 extracellular loops”, in the assay with HEK 293FT cells, the “homotypic FETCH score (docking)” value is on record as “retained their ability to homotypically dock”.

“Cx36: human connexin 36 (GJD2), C-terminal fluorescent fusion protein”: in the assay on HEK 293FT cells, the “heterotypic FETCH score” value is on record as “failed to dock” and the “homotypic FETCH score (docking)” value is recorded as “significantly positive”. Consider “Cx50: human connexin 50 (GJA8), C-terminal fluorescent fusion protein”, for which, in the assay on HEK 293FT cells, the “homotypic FETCH score (docking)” value is given as “failed to generate a significant homotypic FETCH score”. Same read-out and setting: for “Cx59: human connexin 59 (GJA9), C-terminal fluorescent fusion protein” the value was “failed to generate a significant homotypic FETCH score”.

These data come from patent US20240248078A1, “Compositions For and Methods of Evaluating Gap Junction Formation and Function” (Duke University, priority 2021, published 2024).
